Patent US9937250B2, “Immunogenic tumor associated stromal cell antigen peptides and methods of their use” (University of Pittsburgh—Of the Commonwealth System of …, priority 2011, dated 2018)

Experiments:
[1] = test system: MC38 tumor microenvironment; assay: Fluorescence imaging of MC38 tumor sections after prophylactic vaccination; assay type: in vivo, HHD mice; conditions: day 14 tumors; p<0.05 vs. untreated or DC.IL12/no peptide
Text: Day 14 MC38 tumors were harvested from HHD mice that had been vaccinated as outlined in FIG. 9B with the indicated peptides (or control PBS or DC.IL12 alone=No peptide). In FIG. 10A, six-micron tissue sections were co-stained with anti-CD8 (green) and anti-NG2 (red) antibodies and imaged by fluorescence microscopy. Blue signal=nuclear counterstain using 4′,6-diamidino-2-phenylindole (DAPI). FIG. 10B provides a summary of the mean+/−SD number of CD8^+ cells per high-power field (HPF) in MC38 tumors isolated from control or vaccinated mice as depicted in FIG. 10A. In FIG. 10C, tissue sections were co-stained with anti-CD31 (green) and anti-NG2 (red) antibodies and imaged by fluorescence microscopy. Blue signal=nuclear counterstain using DAPI. In FIG. 10D, the mean+/−SD number of CD31^+ vessels per HPF of MC38 tumors in control or vaccinated mice are summarized Representative data is depicted from 1 of 3 independent experiments performed. *p<0.05 versus DC only or untreated control mice.
Fluorescence Imaging of Tumor Sections. Tumor tissue samples were prepared and 6 micron sections prepared as previously reported (Komita et al., Cancer Res., 68:8076-8084, 2008). The following Abs were used: (for T cell analyses), rabbit anti-mouse NG2 (Millipore, Bedford, Mass.) and alexa488-conjugated anti-CD4 or -CD8β antibodies or matching isotype controls (all from BD-Biosciences); (for vascular analyses), rat anti-mouse CD31 (BD-Biosciences) and rabbit anti-mouse NG2 (Millipore) Abs; (for TBVA), rat anti-mouse CD31 (BD-Biosciences) and guinea pig anti-mouse NG2 Abs, along with anti-TBVA as described in Example 1. Imaging was performed using an Olympus Fluoview 500 Confocal microscope (Olympus America, Center Valley, Pa.).
Protective vaccines incorporating TBVA peptides promote enhanced infiltration of the TME by CD8^+ T cells in association with an inhibition of tumor vascularity. MC38 tumor lesions from all cohorts of animals with evidence of disease on day 14 (post-tumor inoculation) were isolated and immunofluorescence microscopy on tumor sections was performed. […] In marked contrast, CD4^+ T cell infiltration in the TME was sparse and the data were indistinguishable when comparing control vs. vaccinated mice (FIG. 17). […] Correlative analyses indicated an association between the anti-tumor efficacy of vaccines and their ability to promote CD8^+ T cell infiltration and reduced vascularity in the TME (FIG. 16).

[2] = test system: CD8+ T cells from HLA-A2+ normal donors or HLA-A2+ melanoma patients; assay: In vitro sensitization of human CD8+ T cells with TASA peptide-pulsed autologous DC, IFN-γ ELISA against peptide-pulsed T2 cells; assay type: cell-based
Method in brief: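 Autologous DC pulsed with 1 μM each TASA peptide pool for 4 h, then used at 10:1 T cell:DC to stimulate CD8+ T cells: twice weekly for normal donors (analysed day 12), once for melanoma patients (day 5). Responders cultured 24 h at 5:1 with T2 cells pulsed with 1 μM peptide or control; IFN-γ measured by ELISA.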

In the case of “TEM1: TEM1-derived peptide 691-700 pulsed onto DC or DC.IL12 (LLVPTCVFLV; listed as Homo sapiens)”, the “Suppression in CD31+ vessel counts in the MC38 TME” value [1] is reported as “greatest degree of suppression in CD31^+ vessel counts”, the “Specific CD8+ T cell Production of IFN-γ in Response to TASA” value (“Specific CD8+ T cell Production of IFN-γ” for short) ([2]; donor Mel1, melanoma patient) is reported as “+ (Human responses were designated as + if T cell reactivity against T2 cells presenting the indicated peptide (IFN-γ ELISA) was >30 pg/ml and more than 2 fold higher than reactivity versus T2 cells pulsed with the negative control HIV-nef190-198 peptide)” and the “Specific CD8+ T cell Production of IFN-γ” value ([2]; donor Mel4, melanoma patient) is reported as “+ (Human responses were designated as + if T cell reactivity against T2 cells presenting the indicated peptide (IFN-γ ELISA) was >30 pg/ml and more than 2 fold higher than reactivity versus T2 cells pulsed with the negative control HIV-nef190-198 peptide)”. The “Specific CD8+ T cell Production of IFN-γ” value ([2]; donor Mel7, melanoma patient) was “+ (Human responses were designated as + if T cell reactivity against T2 cells presenting the indicated peptide (IFN-γ ELISA) was >30 pg/ml and more than 2 fold higher than reactivity versus T2 cells pulsed with the negative control HIV-nef190-198 peptide)”, the “Specific CD8+ T cell Production of IFN-γ” value ([2]; donor Mel8, melanoma patient) was “+ (Human responses were designated as + if T cell reactivity against T2 cells presenting the indicated peptide (IFN-γ ELISA) was >30 pg/ml and more than 2 fold higher than reactivity versus T2 cells pulsed with the negative control HIV-nef190-198 peptide)” and the “Specific CD8+ T cell Production of IFN-γ” value ([2]; donor ND1, normal donor) was “+ (Human responses were designated as + if T cell reactivity against T2 cells presenting the indicated peptide (IFN-γ ELISA) was >30 pg/ml and more than 2 fold higher than reactivity versus T2 cells pulsed with the negative control HIV-nef190-198 peptide)”. For the same substance, the “Specific CD8+ T cell Production of IFN-γ” value ([2]; donor ND2, normal donor) was “+ (Human responses were designated as + if T cell reactivity against T2 cells presenting the indicated peptide (IFN-γ ELISA) was >30 pg/ml and more than 2 fold higher than reactivity versus T2 cells pulsed with the negative control HIV-nef190-198 peptide)”, the “Specific CD8+ T cell Production of IFN-γ” value ([2]; donor ND3, normal donor) was “+ (Human responses were designated as + if T cell reactivity against T2 cells presenting the indicated peptide (IFN-γ ELISA) was >30 pg/ml and more than 2 fold higher than reactivity versus T2 cells pulsed with the negative control HIV-nef190-198 peptide)” and the “Specific CD8+ T cell Production of IFN-γ” value ([2]; donor ND5, normal donor) was “+ (Human responses were designated as + if T cell reactivity against T2 cells presenting the indicated peptide (IFN-γ ELISA) was >30 pg/ml and more than 2 fold higher than reactivity versus T2 cells pulsed with the negative control HIV-nef190-198 peptide)”.
